Data set [1] has as its system MCF7 (EGFR positive cancer cell line). Kind of data set: LDH release cytotoxicity / cell viability assay in MCF7. The format is cell-based. The conditions noted are these: Homo sapiens.
The nature of data set [2]: Caco-2 bidirectional permeability assay. Particulars: human, Caco-2, 10 µM, 37 °C. (In general: Caco-2 cells form a polarised layer with tight junctions and transporters.)
Data set [3] can be described thus: Log D7.4 shake flask assay. The format is physicochemical. Particulars: octanol/PBS, pH 7.4.
A short description of the next data set: Chemical stability assay. The class given is physicochemical. The conditions noted are these: 37 °C.
Where [4] appears, read: buffer pH 2.0, pH 2, Chemical Stability - Half-Life, pH 2.0, 5 µM.
The mark [5] stands for this setting: buffer pH 10.0, pH 10, Chemical Stability - Half-Life, pH 10.0, 5 µM.

SMILES strings stand for the structures.

These results are taken from publication PMC9077134 (OncoTargets and therapy, 2022).

Broadly, the IC50 is the concentration at which inhibition is half-maximal. A higher IC50 goes with weaker potency. Broadly, the Papp is a coefficient for how fast a substance crosses the barrier. One may read the solubility as the dissolved amount per volume that the medium holds. In general, logD refers to the decadic logarithm of the distribution of all forms, ionised or not, between an organic phase and buffer at a given pH. A low value points to a more hydrophilic compound. As usually defined, the half-life is the time needed for the level to fall by half in the phase considered.

In data set [1], `CC(C)(O)CC(=O)NCCn1ccc2ncnc(Nc3ccc(Oc4cccc(C(F)(F)F)c4)c(Cl)c3)c21` [TAK-285] registered an IC50 of 15.5 ± 5.6 µM.

On to `CC(C)NCC(O)COc1cccc2ccccc12` (stereo not shown) [Propranolol, propranolol], for which the Papp at 2 h, 10 µM in data set [2] (Caco-2, pH 7.4, Papp (Apical to Basal), apical to basal) was 29 ± 1.2 ×10⁻⁶ cm/s; in data set [2] (Caco-2, pH 7.4, Papp (Basal to Apical), basal to apical), 21.1 ± 0.3 ×10⁻⁶ cm/s.

In the data set “Thermodynamic solubility” (pH 4.5), `CCCSc1ccc2nc(NC(=O)OC)[nH]c2c1` [Albendazole, albendazole] came in with a solubility at 24 h of less than 1 µg/mL. In “Thermodynamic solubility” (pH 7.4, PBS, room temperature, 24 h), the “Thermodynamic Solubility” value was determined as 0.72 ± 0.2 µg/mL. Further, in data set [3], the pH-dependent lipophilicity (logD) at 4 h was found to be 3.6 ± 0.1.

`CC(C)[N+](C)(CCOC(=O)C1c2ccccc2Oc2ccccc21)C(C)C` [Propantheline bromide]: the half-life at 5 µM in the data set “Chemical stability assay” (setting [4]) worked out at 82.9 ± 14.8 min; in the data set “Chemical stability assay” (setting [5]), 8.3 ± 2.6 min.

Consider `COc1ccc2[nH]c([S+]([O-])Cc3ncc(C)c(OC)c3C)nc2c1` (stereo not shown) [Omeprazole], for which the half-life at 5 µM was 10.2 ± 3.1 min in “Chemical stability assay” (setting [4]) and 55.3 ± 11.4 min in “Chemical stability assay” (setting [5]).
